Patent publication US20220265690A1, “USE OF SOTAGLIFLOZIN FOR THE TREATMENT OF PATIENTS WITH TYPE 2 DIABETES MELLITUS AND MODERATE RENAL IMPAIRMENT” (Lexicon Pharmaceuticals, Inc., priority 2019, published 2022)

Legend:
[1] = tested on: patients with type 2 diabetes; conditions: phase II trials; cited from earlier work
[2] = tested on: patients with T2D and documented moderate renal insufficiency (CKD 3A, 3B); experiment: Multicentre, double-blind, placebo-controlled clinical study of sotagliflozin 200 mg and 400 mg once daily; HbA1c change at Week 26; assay type: in vivo; conditions: for HbA1c (%) Change from baseline to Week 26 LS Mean difference (SE) vs. placebo / HbA1c (%) Change from baseline to Week 26 LS Mean (SE) / HbA1c (%) Week 26 Mean (SD) / HbA1c (%) Week 26 Median: overall ITT population; for HbA1c (%) Change from baseline to Week 26 LS Mean (SE): ANCOVA, multiple imputation; for LS mean change in HbA1c from baseline to W26 / mean HbA1c level reached at W26: sotagliflozin 400 mg
Experimental: The efficacy, relative to a placebo, […], was evaluated in multicentre, double-blind clinical with random distribution in three groups of treatment (group treated with sotagliflozin 200 mg daily dose, group treated with sotagliflozin 400 mg daily dose, and group treated with a placebo) of patients. The selected patients were adult patients with T2D (drug-naïve or on antidiabetic therapy) and documented moderate renal insufficiency defined by an eGFR (based on the 4 variable Modification of Diet in Renal Disease [MDRD] equation) of ≥30 and <60 mL/min/1.73 m^2 (CKD 3A, 3B). The study was conducted as follows: • Screening Phase—Visit 1 (up to 2 weeks) • Run-in phase (Visit 2), lasted 2 weeks. Patients were treated in a single-blind manner with two placebo tablets (identical to sotagliflozin 200 mg in appearance) administered once daily during the Run-in phase, starting from Visit 2 • Double-blind Treatment Period (Day 1 to Week 26): Eligible patients will be randomized on Day 1 (Visit 3). Following randomization, patients will be treated in a double-blind manner for 52 weeks. A total of 787 patients ≥18 years of age (or ≥legal age of the majority, whichever is greater) were randomly assigned 1:1:1 to the following 3 treatment groups: • Placebo, given as two (2) placebo tablets (identical to sotagliflozin 200 mg in appearance), once daily, before the first meal of the day • Sotagliflozin 200 mg, given as 2 tablets: 1 sotagliflozin 200 mg tablet and 1 placebo tablet (identical to sotagliflozin 200 mg in appearance), once daily • Sotagliflozin 400 mg, given as two (2) 200 mg tablets, once daily, before the first meal of the day. • Double-blind Extension Period (Week 27 to Week 52): • Follow-up Period Following the last dose of the IMP: a 4 week post-treatment visit to collect safety and some efficacy information. […] Efficacy analysis was based on the intent-to-treat (ITT) population using efficacy assessments obtained during the study, including those obtained after investigational medicinal product (IMP) discontinuation or introduction of rescue therapy. The ITT population consisted of all randomized patients. The primary efficacy endpoint was analyzed using an analysis of covariance (ANCOVA) model. The ANCOVA model included treatment groups (sotagliflozin 200 mg, sotagliflozin 400 mg, placebo), randomization stratum of HbA1c (≤8.5%, >8.5%), randomization stratum of SBP (<130, ≥130 mmHg), randomization stratum of CKD stage (3A, 3B), and country as fixed effects, and baseline HbA1c value as a covariate.

[3] = sotagliflozin 200 mg once daily
[4] = sotagliflozin 400 mg once daily
[5] = sotagliflozin 400 mg once daily, listed as sotagliflozin

For `CCOc1ccc(Cc2cc([C@@H]3O[C@H](SC)[C@@H](O)[C@H](O)[C@H]3O)ccc2Cl)cc1` [Sotagliflozin, sotagliflozin], the “glycemic control (reduction in A1C)” value [1] is listed as “significantly improve glycemic control”, the “HbA1c (%) Change from baseline to Week 26 LS Mean difference (SE) vs. placebo” value ([2]; sotagliflozin 200 mg once daily, 95% CI (−0.244, 0.054), p-value 0.2129) is listed as −0.09 (0.076) % and the “HbA1c (%) Change from baseline to Week 26 LS Mean (SE)” value [2, 3] is listed as −0.32 (0.060) %. The “HbA1c (%) Week 26 Mean (SD)” value [2, 3] was 7.82 (0.99) %, the “HbA1c (%) Week 26 Median” value [2, 3] was 7.70% and the “HbA1c (%) Change from baseline to Week 26 LS Mean difference (SE) vs. placebo” value ([2]; sotagliflozin 400 mg once daily, 95% CI (−0.382, −0.082), p-value 0.0024) was −0.23 (0.076) %. The “HbA1c (%) Change from baseline to Week 26 LS Mean (SE)” value [2, 4] was −0.46 (0.060) %, the “HbA1c (%) Change from baseline to Week 26 LS Mean (SE)” value [2, 5] was −0.46% and the “HbA1c (%) Week 26 Mean (SD)” value [2, 4] was 7.72 (1.00) %. The “HbA1c (%) Week 26 Median” value [2, 4] was 7.60%, the “HbA1c (%) Week 26 Mean (SD)” value [2, 5] was 7.72% and the “LS mean change in HbA1c from baseline to W26” value ([2]; CKD3A population) was −0.54%. For the same compound, the “mean HbA1c level reached at W26” value ([2]; CKD3A population) was 7.62%, the “LS mean change in HbA1c from baseline to W26” value ([2]; CKD3B population) was −0.37% and the “mean HbA1c level reached at W26” value ([2]; CKD3B population) was 7.82%.
